The target in assay [1] is T1, Coagulation factor X (Homo sapiens, UniProt P00742). Kind of assay: Second-order rate constant of factor Xa inhibition.
Assay [2] deals with T1, Coagulation factor X. Kind of assay: Equilibrium dissociation constant of factor Xa inhibition.
The target in assay [3] is T1, Coagulation factor X. Kind of assay: Inhibitory activity against Plasma coagulation enzyme factor Xa; Value expressed as k Act/k UNCAT (uncatalyzed). It counts as cell-free.

T1 sequence (P00742 41-179 limits assumed): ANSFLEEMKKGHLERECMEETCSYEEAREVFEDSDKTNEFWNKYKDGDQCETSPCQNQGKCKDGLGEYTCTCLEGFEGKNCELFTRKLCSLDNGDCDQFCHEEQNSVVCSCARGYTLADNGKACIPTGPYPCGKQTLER
T1 sequence (P00742 235-488 limits assumed): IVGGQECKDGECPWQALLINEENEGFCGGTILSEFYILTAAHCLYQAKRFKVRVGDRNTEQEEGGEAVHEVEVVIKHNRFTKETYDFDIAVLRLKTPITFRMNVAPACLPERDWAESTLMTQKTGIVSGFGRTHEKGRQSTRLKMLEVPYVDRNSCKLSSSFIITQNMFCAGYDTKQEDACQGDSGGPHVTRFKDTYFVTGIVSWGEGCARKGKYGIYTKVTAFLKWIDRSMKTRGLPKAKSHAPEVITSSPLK

In general, Kd refers to the equilibrium constant for the complex coming apart. Low values mean a tighter complex, high ones a looser complex. At Coagulation factor X [1], `CO[C@H]1O[C@H](COS(=O)(=O)O)[C@@H](O[C@@H]2O[C@H](C(=O)O)[C@@H](O[C@H]3O[C@H](COS(=O)(=O)O)[C@@H](O)[C@H](O)[C@H]3NS(=O)(=O)O)[C@H](O)[C@H]2O)[C@H](OS(=O)(=O)O)[C@H]1NS(=O)(=O)O` registered a k act of 45000 M⁻¹ s⁻¹. On Coagulation factor X [2], this compound came in with a Kd of 2 µM. The same compound gave an Acceleration at Coagulation factor X [3] of 320.
On the same counts, the results for `O=c1c(OS(=O)(=O)O)c(-c2ccc(OS(=O)(=O)O)c(OS(=O)(=O)O)c2)oc2cc(OS(=O)(=O)O)cc(OS(=O)(=O)O)c12` are 5700 M⁻¹ s⁻¹, 17 µM and 17.5.
In the same order, the values of `O=c1c(OS(=O)(=O)O)c(-c2ccc(OS(=O)(=O)O)cc2OS(=O)(=O)O)oc2cc(OS(=O)(=O)O)cc(OS(=O)(=O)O)c12` are 7100 M⁻¹ s⁻¹, 1.8 µM and 21.8.
On the same counts, the results for `O=S(=O)(O)Oc1cc2c(c(OS(=O)(=O)O)c1)C[C@@H](OS(=O)(=O)O)[C@H](c1ccc(OS(=O)(=O)O)c(OS(=O)(=O)O)c1)O2` are 6750 M⁻¹ s⁻¹, 3.5 µM and 20.8.
In the case of `CO[C@@H]1O[C@@H](C(=O)O)[C@@H](O[C@H]2OC(COS(=O)(=O)O)=C[C@H](OS(=O)(=O)O)[C@H]2NS(=O)(=O)O)[C@H](O)[C@H]1OS(=O)(=O)O`, the k act at Coagulation factor X [1] stood at 6400 M⁻¹ s⁻¹. Moreover, binding on Coagulation factor X [2] was characterised by a dissociation constant (Kd) of 95 µM. At Coagulation factor X [3], the Acceleration was 19.7.
On the same counts, the results for `O=S(=O)(O)Oc1cc2c(c(OS(=O)(=O)O)c1)CC(OS(=O)(=O)O)C(c1ccc(OS(=O)(=O)O)c(OS(=O)(=O)O)c1)O2` (stereo unspecified) are 2770 M⁻¹ s⁻¹, 26.1 µM and 8.5.
On the same counts, the results for `O=S(=O)(O)Oc1cc2c(c(OS(=O)(=O)O)c1)C[C@H](OS(=O)(=O)O)[C@H](c1ccc(OS(=O)(=O)O)c(OS(=O)(=O)O)c1)O2` are 3380 M⁻¹ s⁻¹, 10.7 µM and 10.4.

Source of the values: ChEMBL document CHEMBL1136588, “Exploring new non-sugar sulfated molecules as activators of antithrombin” (Bioorg Med Chem Lett, 2003).
